According to US8471015B2, “Process for producing a green fluorescent protein comprising coelenteramide or an analog thereof” (JNC Corporation, priority 2009, dated 2013):
Where two headings read alike, the source gives them in different places.

Key:
[1] = biological target: T1, apoaequorin (Aequorea victoria, UniProt P07164); assay type: biochemical
T1 construct: OmpA signal peptide (N, cleaved yes); made in house; host or cells: Escherichia coli strain WA802
Protocol: Apoaequorin (0.5 mg, 22 nmol) was mixed with 10 μl of coelenteramide (1.2 μg/μl, 29 nmol, in anhydrous methanol) in 1 ml of 50 mM Tris-HCl (pH 7.6) containing 10 mM CaCl2 and 1 mM DTT. […] Subsequently, syn-BFP was treated at 4° C., 5,000×g for 20 minutes using centrifugal concentrator Vivaspin 2 (10,000 MWCO, Sartorius AG, Germany) to concentrate the mixture to 0.1 ml.
Regarding the production of synthetic gFP (syn-gFP) from apoaequorin and coelenteramide, apoaequorin (0.5 mg, 22 nmol) was mixed with 10 μl of coelenteramide (1.2 μg/μl, 29 nmol, in anhydrous methanol) in 1 ml of 50 mM Tris-HCl (pH 7.6) containing 10 mM EDTA and 1 mM DTT. […]
Absorption spectra were measured at 25° C. with a Jasco (Tokyo, Japan) V-560 spectrophotometer (bandwidth: 0.5 nm, response, medium; scan speed, 100 nm/min.) using a quartz cuvette (10 mm light path). Also, fluorescence spectra were measured on a Jasco FP-6500 fluorescence spectrophotometer (emission/excitation bandwidth: 3 nm, response: 0.5 sec., scan speed: 1000 nm/min.).

T1 sequence (P07164 other isoform, or with tags, fused parts or gaps with the stated changes): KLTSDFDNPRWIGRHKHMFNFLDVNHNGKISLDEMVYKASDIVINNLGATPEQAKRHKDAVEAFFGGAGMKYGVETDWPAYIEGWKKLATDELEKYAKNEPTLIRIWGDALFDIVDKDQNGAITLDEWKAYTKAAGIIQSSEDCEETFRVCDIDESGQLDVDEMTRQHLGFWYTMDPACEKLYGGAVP

| Compound | Fluorescence intensity (rlu) (excited at 332 nm) ([1]; 10 mM Ca^2+ (Imax, 465 nm), +DTT, 0 hr) | Fluorescence intensity (rlu) (excited at 332 nm) ([1]; 10 mM Ca^2+ (Imax, 465 nm), +DTT, 0.5 hr) | Fluorescence intensity (rlu) (excited at 332 nm) ([1]; 10 mM Ca^2+ (Imax, 465 nm), +DTT, 16 hrs) | Fluorescence intensity (rlu) (excited at 332 nm) ([1]; 10 mM Ca^2+ (Imax, 465 nm), -DTT series, then +DTT, 24 hrs) | Fluorescence intensity (rlu) (excited at 332 nm) ([1]; 10 mM Ca^2+ (Imax, 465 nm), -DTT, 0 hr) | Fluorescence intensity (rlu) (excited at 332 nm) ([1]; 10 mM Ca^2+ (Imax, 465 nm), -DTT, 16 hrs) | Fluorescence intensity (rlu) (excited at 332 nm) ([1]; 10 mM EDTA (Imax, 469.5 nm), +DTT, 0 hr) | Fluorescence intensity (rlu) (excited at 332 nm) ([1]; 10 mM EDTA (Imax, 469.5 nm), +DTT, 0.5 hr) | Fluorescence intensity (rlu) (excited at 332 nm) ([1]; 10 mM EDTA (Imax, 469.5 nm), +DTT, 16 hrs) | Fluorescence intensity (rlu) (excited at 332 nm) ([1]; 10 mM EDTA (Imax, 469.5 nm), -DTT series, then +DTT, 24 hrs) | Fluorescence intensity (rlu) (excited at 332 nm) ([1]; 10 mM EDTA (Imax, 469.5 nm), -DTT, 0 hr) | Fluorescence intensity (rlu) (excited at 332 nm) ([1]; 10 mM EDTA (Imax, 469.5 nm), -DTT, 16 hrs) | melting point |
| --- | --- | --- | --- | --- | --- | --- | --- | --- | --- | --- | --- | --- | --- |
| O=C(Cc1ccc(O)cc1)Nc1ncc(-c2ccc(O)cc2)nc1Cc1ccccc1 [Coelenteramide, coelenteramide] | 25.4 rlu | 28.4 rlu | 29.5 rlu | 22.0 rlu | 9.8 rlu | 11.3 rlu | 20.2 rlu | 22.7 rlu | 23.1 rlu | 24.3 rlu | 14.8 rlu | 18.7 rlu | – |
| COc1ccc(CC(=O)Nc2ncc(-c3ccc(OC)cc3)nc2Cc2ccccc2)cc1 [IV, coelenteramide dimethyl ether] | – | – | – | – | – | – | – | – | – | – | – | – | 189.5 to 191 °C |
